We go through 13 molecules from patent US11753407B2, “Compounds for treating spinal muscular atrophy” (PTC Therapeutics, Inc., priority 2012, dated 2023).

For series [1], the system named is SMN2 minigene mRNA (SMN2-A minigene) in HEK293H cells. The series can be described thus: SMN2 minigene mRNA splicing RT-qPCR assay in cultured cells. Format: cell-based, human. Particulars: Homo sapiens, HEK293-H; concentration increasing full length SMN2 mRNA 1.5-fold relative to vehicle-treated cells; HEK293H cells with SMN2-A minigene, 24 hours, 7-point concentration data; read-out: EC1.5x for production of full length SMN2 mRNA. The essentials: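 Read-out: minigene-specific full-length (exon 7-included) SMN2 mRNA by one-step multiplex RT-qPCR, normalized to GAPDH and divided by vehicle-treated level. Stable SMN2-A minigene HEK293H cells, 24 h compound exposure, 7 concentrations in duplicate. EC1.5× = concentration raising FL mRNA 1.5-fold.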
On the technique in general: In qPCR the cycle at which signal appears reflects the starting amount.

The subject of series [2] is Smn protein in SMA patient fibroblast cells (GM03813). The series can be described thus: Smn protein assay in cultured cells (SMN HTRF). It counts as cell-based, human. To be noted: SMA patient fibroblast cells, 48 hours; for maximum fold (Fold) increase of Smn protein: 7-point concentration data, fold relative to vehicle control; for EC1.5x for Smn protein expression: 7-point concentration curve, SMN HTRF, concentration producing 1.5 times Smn protein vs DMSO vehicle control. The essentials:
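Read-out: HTRF 665/620 nm ratio, blank-subtracted as ΔF, then expressed as fold over DMSO vehicle. Fibroblasts from SMA patients were exposed to compounds for 48 h (7 points, 3.16-fold steps, triplicates). Values are EC1.5× and maximum fold Smn increase.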
On the technique in general: Time-resolved FRET reads energy transfer from a long-lived donor to a nearby acceptor.

What is called melting point is the temperature of the solid-liquid transition.

A value given as a limit tells only on which side of the number the result lay.

`COc1ccc(-c2cc(=O)n3cc(C4=CCN(C5CC5)CC4)cc(C)c3n2)cc1OC` [Compound 390, 7-(1-cyclopropyl-1,2,3,6-tetrahydropyridin-4-yl)-2-(3,4-dimethoxyphenyl)-9-methyl-4H-pyrido[1,2-a]pyrimidin-4-one] returned a melting point of 180 to 189 °C. Further, the EC (1.5-fold increase) in series [1] lay in the range of 0.3 to 1 µM. In series [2], the “maximum fold (Fold) increase of Smn protein” value (“maximum fold (Fold) increase” for short) is “* (A maximum fold increase of ≤1.2 is indicated by one star (*))”.

As for `COc1ccc(-c2cc(=O)n3cc(C4=CCN(C)CC4)c(C)cc3n2)cc1OC` [Compound 391, 2-(3,4-dimethoxyphenyl)-8-methyl-7-(1-methyl-1,2,3,6-tetrahydropyridin-4-yl)-4H-pyrido[1,2-a]pyrimidin-4-one], the melting point was in the range of 174 to 178 °C. Besides, in series [1], the EC (1.5-fold increase) is 1 to 3 µM. In series [2], the “maximum fold (Fold) increase” value was “* (A maximum fold increase of ≤1.2 is indicated by one star (*))”.

As to `Cc1nc2ccc(-c3cc(=O)n4cc(C5=CCN(C)CC5)ccc4n3)cc2s1` [Compound 392, 2-(2-methyl-1,3-benzothiazol-6-yl)-7-(1-methyl-1,2,3,6-tetrahydropyridin-4-yl)-4H-pyrido[1,2-a]pyrimidin-4-one], the melting point lay within 170 to 172 °C. Also, the EC (1.5-fold increase) in series [1] was in the range of 0.1 to 0.3 µM. The “maximum fold (Fold) increase” value in series [2] is “*** (a fold increase between >1.35 and ≤1.5 is indicated by three stars (***))”.

The molecule `Cc1nc2ccc(-c3cc(=O)n4cc(C5=CCN(CCO)CC5)ccc4n3)cc2s1` [Compound 393, 7-[1-(2-hydroxyethyl)-1,2,3,6-tetrahydropyridin-4-yl]-2-(2-methyl-1,3-benzothiazol-6-yl)-4H-pyrido[1,2-a]pyrimidin-4-one] gave a melting point of 178 to 180 °C. The EC (1.5-fold increase) in series [1] is below 0.1 µM. In series [2], the “EC1.5x for Smn protein expression” value is “*** (an EC1.5× between >0.3 μM and ≤1 μM is indicated by three stars (***))”; the “maximum fold (Fold) increase” value is “*** (a fold increase between >1.35 and ≤1.5 is indicated by three stars (***))”.

Consider `Cc1nc2ccc(-c3cc(=O)n4cc(C5=CCN(C(C)C)CC5)ccc4n3)cc2s1` [Compound 394, 2-(2-methyl-1,3-benzothiazol-6-yl)-7-[1-(propan-2-yl)-1,2,3,6-tetrahydropyridin-4-yl]-4H-pyrido[1,2-a]pyrimidin-4-one], for which the melting point fell in the range of 168 to 170 °C. Also, the EC (1.5-fold increase) in series [1] lay in the range of 0.1 to 0.3 µM. For the same molecule, the “maximum fold (Fold) increase” value in series [2] is “** (a fold increase between >1.2 and ≤1.35 is indicated by two stars (**))”.

As to `Cc1nc2ccc(-c3cc(=O)n4cc(C5=CCN(C6CC6)CC5)ccc4n3)cc2s1` [Compound 395, 7-(1-cyclopropyl-1,2,3,6-tetrahydropyridin-4-yl)-2-(2-methyl-1,3-benzothiazol-6-yl)-4H-pyrido[1,2-a]pyrimidin-4-one], the melting point lay within 158 to 160 °C. In series [1], the EC (1.5-fold increase) was 0.3 to 1 µM. The “maximum fold (Fold) increase” value in series [2] is “** (a fold increase between >1.2 and ≤1.35 is indicated by two stars (**))”.

With `CCN1CC=C(c2ccc3nc(-c4ccc5nc(C)sc5c4)cc(=O)n3c2)CC1` [Compound 396, 7-(1-ethyl-1,2,3,6-tetrahydropyridin-4-yl)-2-(2-methyl-1,3-benzothiazol-6-yl)-4H-pyrido[1,2-a]pyrimidin-4-one], the melting point is 128 to 130 °C. Also, the EC (1.5-fold increase) in series [1] was 0.1 to 0.3 µM. In series [2], the “EC1.5x for Smn protein expression” value is “*** (an EC1.5× between >0.3 μM and ≤1 μM is indicated by three stars (***))”; the “maximum fold (Fold) increase” value was “**** (a fold increase between >1.5 and ≤1.65 is indicated by four stars (****))”.

For the molecule `Cc1cn2nc(-c3cc(=O)n4cc(N5CCN(C)[C@H](C)C5)ccc4n3)cc2c(C)n1` [Compound 397, 7-[(3R)-3,4-dimethylpiperazin-1-yl]-2-(4,6-dimethylpyrazolo[1,5-a]pyrazin-2-yl)-4H-pyrido[1,2-a]pyrimidin-4-one], the melting point fell in the range of 247 to 249 °C. Besides, in series [1], the EC (1.5-fold increase) was below 0.1 µM. In series [2], the “EC1.5x for Smn protein expression” value is on record as “**** (an EC1.5x≤0.3 μM is indicated by four stars (****))” and the “maximum fold (Fold) increase” value is listed as “***** (a fold increase >1.65 is indicated by five stars (*****))”.

As to `Cc1cn2nc(-c3cc(=O)n4cc(N5C[C@@H]6C[C@H]5CN6)ccc4n3)cc2c(C)n1` [Compound 399, 7-[(1S,4S)-2,5-diazabicyclo[2.2.1]hept-2-yl]-2-(4,6-dimethylpyrazolo[1,5-a]pyrazin-2-yl)-4H-pyrido[1,2-a]pyrimidin-4-one], the melting point is 218 to 221 °C. Moreover, the EC (1.5-fold increase) in series [1] lay in the range of 0.3 to 1 µM. Also, in series [2], the “EC1.5x for Smn protein expression” value is “*** (an EC1.5× between >0.3 μM and ≤1 μM is indicated by three stars (***))”; the “maximum fold (Fold) increase” value was “**** (a fold increase between >1.5 and ≤1.65 is indicated by four stars (****))”.

`Cc1cn2nc(-c3cc(=O)n4cc(N5C[C@@H]6C[C@H]5CN6C)ccc4n3)cc2c(C)n1` [Compound 400, 2-(4,6-dimethylpyrazolo[1,5-a]pyrazin-2-yl)-7-[(1S,4S)-5-methyl-2,5-diazabicyclo[2.2.1]hept-2-yl]-4H-pyrido[1,2-a]pyrimidin-4-one] returned a melting point of 188 to 191 °C. Moreover, the EC (1.5-fold increase) in series [1] was in the range of 0.1 to 0.3 µM. For the same molecule, in series [2], the “EC1.5x for Smn protein expression” value is “*** (an EC1.5× between >0.3 μM and ≤1 μM is indicated by three stars (***))”; the “maximum fold (Fold) increase” value was “**** (a fold increase between >1.5 and ≤1.65 is indicated by four stars (****))”.

For the molecule `CCN1C[C@@H]2C[C@H]1CN2c1ccc2nc(-c3cc4c(C)nc(C)cn4n3)cc(=O)n2c1` [Compound 401, 2-(4,6-dimethylpyrazolo[1,5-a]pyrazin-2-yl)-7-[(1S,4S)-5-ethyl-2,5-diazabicyclo[2.2.1]hept-2-yl]-4H-pyrido[1,2-a]pyrimidin-4-one], the melting point fell in the range of 175 to 177 °C. The EC (1.5-fold increase) in series [1] was 0.1 to 0.3 µM. Moreover, in series [2], the “EC1.5x for Smn protein expression” value is “*** (an EC1.5× between >0.3 μM and ≤1 μM is indicated by three stars (***))”; the “maximum fold (Fold) increase” value is “***** (a fold increase >1.65 is indicated by five stars (*****))”.

`COc1ccc(-c2cc(=O)n3cc(C4CCNCC4)ccc3n2)cc1F` [Compound 403, 2-(3-fluoro-4-methoxyphenyl)-7-(piperidin-4-yl)-4H-pyrido[1,2-a]pyrimidin-4-one] came in with a melting point of 122 to 125 °C. Moreover, the EC (1.5-fold increase) in series [1] is below 0.1 µM. In series [2], the “EC1.5x for Smn protein expression” value is “** (an EC1.5× between >1 μM and ≤3 μM is indicated by two stars (**))”; the “maximum fold (Fold) increase” value is “**** (a fold increase between >1.5 and ≤1.65 is indicated by four stars (****))”.

`CCN1CCC(c2ccc3nc(-c4ccc(OC)c(OC)c4)cc(=O)n3c2)CC1` [Compound 404, 2-(3,4-dimethoxyphenyl)-7-(1-ethylpiperidin-4-yl)-4H-pyrido[1,2-a]pyrimidin-4-one]: the melting point lay in the range of 155 to 157 °C. In addition, the EC (1.5-fold increase) in series [1] was 0.3 to 1 µM. In addition, in series [2], the “EC1.5x for Smn protein expression” value was “** (an EC1.5× between >1 μM and ≤3 μM is indicated by two stars (**))”; the “maximum fold (Fold) increase” value was “**** (a fold increase between >1.5 and ≤1.65 is indicated by four stars (****))”.
